Consider one compound from patent US11420977B2, “Late SV40 (LSF) inhibitors” (Trustees of Boston University, priority 2018, dated 2022).

Holding throughout (type): cell-based
In one test the test system is SNU-423 cells. Nature of the test: MTS cell proliferation assay, SNU-423. Particulars: Homo sapiens, 120 hrs incubation. On the procedure: (§1) Cell lines and culture conditions: Human colon cancer cells Caco-2, HT29 and HCT15, human pancreatic cancer cells BxPC3, CFPAC-1, and CAPAN-2, liver cancer cells SNU423 and kidney cells HEK293, were obtained from American Type Culture Collection (Rockville, USA). HeLa, DLD1, U937, THP-1, and NIH3T3 cells were obtained from ATCC. Huh7 cells were obtained from (Japanese Cancer Resources Bank). HeLa cells, Huh7, DLD1 and NIH-3T3 cells were cultured in DMEM (Dulbecco's modification of Eagle's Medium; Corning) supplemented with 10% Fetal Bovine Serum (FBS; Invitrogen) and 10% Fetal Calf Serum (FCS; Atlanta Biologicals) respectively. U937, BxPC3, HCT15, SNU423 and THP-1 cells were grown in RPMI-1640 (Roswell Park Memorial Institute; Corning) supplemented with 10% Fetal Bovine Serum (FBS; Invitrogen). CFPAC-1 cells were cultured in Iscove's Modified Dulbecco's Medium (ATCC) supplemented with 10% FBS. CAPAN-2 and HT29 cells were cultured in McCoy's 5a medium supplemented with 10% FBS. Caco2 and HEK293 cells were grown in Eagle's Minimum Essential Medium (ATCC) with final 20% FBS concentration. All cells were maintained at 37° C. in 5% CO2 at constant 70% humidity.
(§2) MTS cell proliferation assay: Cells were detached from the plates using trypsin (0.25% for 3 mins, ATCC) and counted using a hemocytometer and were plated at 3000-1500 cells per well, in a 96-well format. The cells were seeded in the inner wells of 96 well plates, and media was added to the outer wells (blank). For NIH-3T3, 1500 cells were seeded in the inner wells of 96-well plates, and after 20 hours cells were treated with compound or DMSO (vehicle control) at appropriate concentrations (DMSO at final concentration of 1%). For other adherent cells 3000 HeLa, BxPC3, CFPAC-1, CAPAN-2, HEK293, HCT15, HT29, CaCo2, DLD1, Huh7 or SNU423 cells were seeded in in each well approximately 20 hrs prior to the treatment. For U937 and THP-1 suspension cells, 2500 cells were added to the wells of a 96-well plate on the day of treatment. After a 72-hour (or 120 hrs for BxPC3, CAPAN-2, SNU423) incubation with compound or vehicle, cell growth was assessed via the Promega CellTiter 96® AQueous One Solution Cell Proliferation Assay, a colorimetric method to determine the number of viable cells. 20 μL of the CellTiter 96® AQueous One Solution Reagent was added directly into cultured wells and incubated for approximately one hour, after which the absorbance at 490 nm was read with a 96-well plate reader (Opys MR Microplate Reader). GI50 values were determined from plots of the percentage of compound-treated cell growth to vehicle cell growth vs. compound concentration (GraphPad Prism; non-linear regression, log inhibitor verse normalized response with variable slope).

The test system of another test is HEK-293 cells. Nature of the test: MTS cell proliferation assay, HEK-293. Particulars: Homo sapiens, HEK293, 72-hour incubation. On the procedure:
(§3) Cell lines and culture conditions: Human colon cancer cells Caco-2, HT29 and HCT15, human pancreatic cancer cells BxPC3, CFPAC-1, and CAPAN-2, liver cancer cells SNU423 and kidney cells HEK293, were obtained from American Type Culture Collection (Rockville, USA). HeLa, DLD1, U937, THP-1, and NIH3T3 cells were obtained from ATCC. Huh7 cells were obtained from (Japanese Cancer Resources Bank). HeLa cells, Huh7, DLD1 and NIH-3T3 cells were cultured in DMEM (Dulbecco's modification of Eagle's Medium; Corning) supplemented with 10% Fetal Bovine Serum (FBS; Invitrogen) and 10% Fetal Calf Serum (FCS; Atlanta Biologicals) respectively. […]
(§4) MTS cell proliferation assay: Cells were detached from the plates using trypsin (0.25% for 3 mins, ATCC) and counted using a hemocytometer and were plated at 3000-1500 cells per well, in a 96-well format. […] After a 72-hour (or 120 hrs for BxPC3, CAPAN-2, SNU423) incubation with compound or vehicle, cell growth was assessed via the Promega CellTiter 96® AQueous One Solution Cell Proliferation Assay, a colorimetric method to determine the number of viable cells. 20 μL of the CellTiter 96® AQueous One Solution Reagent was added directly into cultured wells and incubated for approximately one hour, after which the absorbance at 490 nm was read with a 96-well plate reader (Opys MR Microplate Reader). […]

The next test relates to NIH 3T3 cells. Kind of test: MTS cell proliferation assay, NIH 3T3. Particulars: Mus musculus, NIH3T3, 72-hour incubation. On the procedure:
as §1, with “All cells were maintained at 37° C. in 5% CO2 at constant 70% humidity.” left out
(§5) MTS cell proliferation assay: Cells were detached from the plates using trypsin (0.25% for 3 mins, ATCC) and counted using a hemocytometer and were plated at 3000-1500 cells per well, in a 96-well format. […] After a 72-hour (or 120 hrs for BxPC3, CAPAN-2, SNU423) incubation with compound or vehicle, cell growth was assessed via the Promega CellTiter 96® AQueous One Solution Cell Proliferation Assay, a colorimetric method to determine the number of viable cells. 20 μL of the CellTiter 96® AQueous One Solution Reagent was added directly into cultured wells and incubated for approximately one hour, after which the absorbance at 490 nm was read with a 96-well plate reader (Opys MR Microplate Reader). GI50 values were determined from plots of the percentage of compound-treated cell growth to vehicle cell growth vs. compound concentration (GraphPad Prism; non-linear regression, log inhibitor verse normalized response with variable slope).

Another test has as its system BxPC-3 cells. Kind of test: MTS cell proliferation assay, BxPC-3. Particulars: Homo sapiens, 120 hrs incubation. On the procedure:
as §3, §4

For a further test, the system named is CAPAN-2 cells. Kind of test: MTS cell proliferation assay, CAPAN-2. To be noted: Homo sapiens, 120 hrs incubation. On the procedure:
as §3, §4

The subject of another test is CFPAC-1 cells. Nature of the test: MTS cell proliferation assay, CFPAC-1. To be noted: Homo sapiens, 72-hour incubation. On the procedure: as §3, §4
Another test concerns CaCo-2 cells. Nature of the test: MTS cell proliferation assay, CaCo-2. To be noted: Homo sapiens, 72-hour incubation. On the procedure:
as §3, §4

A further test deals with HCT-15 cells. Nature of the test: MTS cell proliferation assay, HCT-15. Particulars: Homo sapiens, 72-hour incubation. On the procedure:
as §3, §4

Another test concerns HT-29 cells. Nature of the test: MTS cell proliferation assay, HT-29. To be noted: Homo sapiens, 72-hour incubation. On the procedure: as §3, §4
Another test has as its system U937 cells. Nature of the test: MTS cell proliferation assay, U937. To be noted: Homo sapiens, U-937, 72-hour incubation. On the procedure: as §3, §4
In another test the test system is THP-1 cells. Kind of test: MTS cell proliferation assay, THP-1. Particulars: Homo sapiens, 72-hour incubation. On the procedure:
as §3, §4

The test system of another test is HuH7 cells. Nature of the test: MTS cell proliferation assay, HuH7. Particulars: Homo sapiens, Huh-7, 72-hour incubation. On the procedure: as §1, §2
Another test relates to HeLa cells. Kind of test: MTS cell proliferation assay, HeLa. Particulars: Homo sapiens, 72-hour incubation. On the procedure:
as §1, with “All cells were maintained at 37° C. in 5% CO2 at constant 70% humidity.” left out
as §5

Another test has as its system RPE-hTERT Flp-In cells. Kind of test: FQI34/FQI1 comparison, mitotic defects in RPE-hTERT Flp-In cells. On the procedure: RPE-hTERT Flp-In cells were incubated in serum-free DMEM:F12 media for 24 hours to synchronize the cells in G0/G1. Cells were stimulated to reenter the cell cycle with DMEM:F12 media containing 10% Fetal Bovine Serum. After 24 hours, the cells were treated with DMSO (vehicle), FQI1 (2.5 μM or 5 μM), or FQI34 (250 nM or 500 nM) for one hour. The cells were washed twice with 1×Phosphate-buffered Saline and fixed with PHEM (3.7% formaldehyde in 100 mM PIPES at pH 6.8, 10 mM EGTA, 1 mM magnesium chloride, and 0.2% Triton X-100) for 10 minutes at room temperature. The fixed cells were stained for α-tubulin using a mouse anti-α-tubulin antibody (Fisher #62204). Secondary antibodies were: DMSO/FQI1 samples—goat anti-mouse IgG conjugated to Alexa 546 (Thermo Fisher #A11003); FQI34 samples—goat anti-mouse IgG conjugated to Texas Red (Fisher #T-862). DNA was stained with Hoechst 33342. Cells were imaged using a Nikon NiE using the 40× objective and images were captured using a DS-Qi1 Mc 12 bit camera. Scale bars and merged images were generated using Fiji software.

In the case of `CCOc1cc(N(C)C)ccc1C1CC(=O)Nc2cc3c(cc21)OCO3` (stereo not drawn) [FQI-34], the GI50 amounted to 0.384 µM with SNU-423 cells; 0.219 µM with HEK-293 cells; 0.73 µM with NIH 3T3 cells; 0.27 µM in the test with BxPC-3 cells; 0.239 µM in the test on CAPAN-2 cells; 0.676 µM in the test on CFPAC-1 cells. Also, the 50% growth inhibitory concentration (GI50) was found to be 0.501 µM in the test with CaCo-2 cells; 0.224 µM with HCT-15 cells; 0.316 µM with HT-29 cells; 0.25 µM in the test on U937 cells; 4.8 µM with THP-1 cells; 0.141 µM with HuH7 cells. The same compound came in with a GI50 with HeLa cells of 0.462 µM. Besides, the “potency for causing mitotic defects relative to FQI1” value in the test with RPE-hTERT Flp-In cells (FQI34 250 nM or 500 nM vs FQI1 2.5 μM or 5 μM, one hour) is recorded as “at least 10 fold”. Further, the “chromosome and spindle phenotype (DNA and α-tubulin immunofluorescence)” value in the test on RPE-hTERT Flp-In cells (one hour treatment, FIG. 33) was “condensed, but nonaligned chromosomes and disrupted spindles”.
